From patent publication US12599660B2, “Therapeutic RNA for HPV-positive cancer” (priority 2020, dated 2026) come the findings set out here.

The test system of this experiment is TC-1 luc tumors. Nature of the experiment: TC-1 luc tumor model with E7 RNA-LPX and cisplatin chemotherapy: tumor growth and survival. The class given is in vivo, C57BL/6 mice. The following applies: 40 μg RNA-LPX day 16, 80 μg cisplatin or PBS i.p. day 22 and 28. Here is the method:
For therapeutic tumor experiments, C57BL/6 mice were injected with 1×10^5 TC-1 or TC-1 luc tumor cells and 5×10^5 C3 tumor cells subcutaneously into to the right flank. Tumor growth was measured unblinded with a caliper every three to four days and tumor volumes calculated by (a^2 x b)/2 (a, width; b, length). Mice were immunized intravenously with 40 μg E7 or control (OVA) RNA-LPX. Arrows in vaccination schemes indicate immunization. Mice were randomized according to their tumor size prior RNA-LPX immunization. The orthovoltage X-ray source XRAD320 (Precision X-Ray Inc.) was used for tumor irradiation, irradiating tumors locally with different doses at a dose rate of 0.47 Gy/min. Biological effective doses were calculated using the formula
In some experiments, mice received 80 μg cisplatin chemotherapy or PBS intraperitoneal (i.p.) twice after RNA-LPX vaccination.
For Example 9, Statistical analysis was performed with GraphPad PRISM 9. For tumor growth analysis, two-way analysis of variance (ANOVA) was performed and when determined significant (p<0.05), Tukey's multiple comparison test run.

With `N.N.[Cl][Pt][Cl]` [Cisplatin, cis-diamminedichloroplatinum (II)], the tumor growth entry is “only slightly improved tumor growth”.
